Assays:
[1] = Selectivity index, ratio of CC50 for human U2OS cells to EC50 for Trypanosoma cruzi Y infected in human U2OS cells; format: toxicity, cell-based; conditions: read-out: Ratio CC50/EC50
[2] = Cytotoxicity against human U2OS cells assessed as reduction in cell viability after 96 hrs; format: cell-based
Trypanosoma cruzi = experiment: Antimicrobial activity against Trypanosoma cruzi Y infected in human U2OS cells after 96 hrs by HCS assay; format: functional, organism-based

EC50 (Trypanosoma cruzi; read-out: EC50) [µM] | EC50 (Trypanosoma cruzi; read-out: pEC50 (converted)) [µM] | Structure (SMILES) | selectivity ratio [1] | CC50 at 96 h ([2]; read-out: CC50) [µM] | CC50 at 96 h ([2]; read-out: pCC50 (converted)) [µM]
0.4 | 0.38 | CC(C)COc1ccc(CN(Cc2ccncc2)S(=O)(=O)c2ccc(F)c(F)c2)cc1 | 30.6 | 11.5 | 11.5
2.7 | 2.69 | COc1ccc(N2CCN(C(=O)CN(Cc3ccccc3C)S(=O)(=O)c3ccc(Cl)cc3)CC2)cc1 | 27.7 | 73.9 | 74.1
18.9 | – | O=C(N/C(=C/c1cccnc1)c1nc2ccccc2[nH]1)c1cccc(Br)c1 | 2.5 | 47.4 | –
18.6 | 18.6 | Cc1ccccc1-c1noc(-c2cccnc2)n1 | > 10.8 | > 200 | –
7 | 6.92 | Cc1ccc(-n2c(SCC(=O)N3CCN(c4ccccc4)CC3)nnc2-c2ccncc2)cc1Cl | 3 | 21.1 | –
0.3 | 0.257 | O=C(NC(Cn1ccnc1)c1ccccc1)c1ccc(-n2cnnn2)cc1 (centres undefined) | 137 | 33.6 | 35.5
3.1 | – | O=C(Cn1ccnc1[N+](=O)[O-])NCc1ccccc1 [BENZNIDAZOLE] | > 128 | > 200 | –
38.3 | – | COc1ccc(N2CCN(C(=O)COc3ccc(C4CCCCC4)cc3)CC2)c([N+](=O)[O-])c1 | 1.3 | 49.6 | –
> 200 | > 200 | CC1=C(C(=O)OCCc2ccccc2)C(c2ccncc2)C2=C(CC(c3ccccc3)CC2=O)N1 (centres undefined) | – | > 200 | –
20.1 | 20 | O=C(CSc1nc(-c2ccncc2)n[nH]1)N1CCN(c2ccccc2)CC1 | > 9.9 | > 200 | –
0.8 | – | O=C(CC(Nc1ccc2ccccc2c1)c1ccncc1)c1ccc(Br)cc1 (centres undefined) | > 258 | > 200 | –
2.7 | 2.69 | Cc1ccc(-c2csc(-c3cccnc3)n2)cc1C | 15.1 | 40.8 | –
4.2 | 4.17 | Clc1ccc(-c2csc(-c3cccnc3)n2)cc1 | > 48 | > 200 | –
> 200 | > 200 | O=C(NC(Cn1ccnc1)c1ccccc1)c1csc(-c2cccs2)n1 (centres undefined) | – | > 200 | 200
> 200 | – | Nc1ncc(-c2nc(-c3cccnn3)no2)c(-c2ccccc2)n1 | < 0.5 | 99.7 | –
0.3 | 0.257 | O=C(NC(Cn1ccnc1)c1ccccc1)c1cccc(-n2cccn2)c1 (centres undefined) | 46.3 | 11.8 | 11.7

Second part, the molecule before the results:

Structure (SMILES) | EC50 (Trypanosoma cruzi; read-out: EC50) [µM] | EC50 (Trypanosoma cruzi; read-out: pEC50 (converted)) [µM] | selectivity ratio [1] | CC50 at 96 h ([2]; read-out: CC50) [µM] | CC50 at 96 h ([2]; read-out: pCC50 (converted)) [µM]
c1cncc(-c2nc(-c3cccs3)no2)c1 | > 200 | > 200 | < 0.3 | 66.3 | –
Cc1nnc(SCC(=O)N2c3ccccc3CC2C)n1-c1ccccc1 (centres undefined) | 36.9 | 37.2 | 4.2 | 155 | –
Cn1c(SCC(=O)N2CCN(c3ccccc3F)CC2)nnc1-c1cccnc1 | > 200 | > 200 | < 1 | 198 | –
c1cncc(-c2nc(-c3cnccn3)n[nH]2)c1 | 3.4 | – | 0.4 | 1.5 | –
Cc1nccn1-c1ccc(Cn2ccnc2-c2cc3ccccc3[nH]c2=O)cc1 | 1.2 | – | 43.9 | 52.9 | –
CC(C)COc1ccc(CN(Cc2ccncc2)S(=O)(=O)c2cccc(F)c2)cc1 | > 200 | > 200 | – | > 200 | 200
Cc1nnc(-c2cccc(-c3ccnc4[nH]ccc34)c2)s1 | > 200 | – | < 0.6 | 127 | –
COc1cccc(-c2noc(-c3cccnc3)n2)c1 | 86 | 85.1 | 1.2 | 106 | –
Cc1ncsc1CCC(=O)NC(Cn1ccnc1)c1ccccc1 (centres undefined) | > 200 | – | – | > 200 | –
COc1ccc2c(c1)cc(C(=O)NC(Cn1ccnc1)c1ccccc1)n2C (centres undefined) | 13.3 | 13.2 | – | 0.62 | 0.617
C=CCSc1nc(-c2ccc(OC)cc2)n[nH]1 | 149 | – | 1.3 | 195 | –
O=C(COc1ccc(-c2ccccc2)cc1)N1CCN(S(=O)(=O)c2ccc(F)cc2)CC1 | > 200 | > 200 | – | > 200 | 200
Clc1ccc(Cc2nn3c(CN4CCN(c5ccccc5)CC4)nnc3s2)cc1 | > 200 | – | – | > 200 | –
N#Cc1ccc(-c2ccc(OCC(=O)N3CCN(c4cccc(Cl)c4)CC3)cc2)cc1 | > 200 | – | – | > 200 | –
Cn1c(SCC(=O)N2CCN(c3ccccc3)CC2)nnc1-c1ccc(Br)cc1 | > 200 | > 200 | – | > 200 | –
Oc1ccccc1-c1n[nH]c(-c2ccccn2)n1 | > 200 | – | – | > 200 | –
CC(=O)Nc1ccc(Cl)c(C(=O)NC(Cn2ccnc2)c2ccccc2)c1 (centres undefined) | 2.7 | – | > 72.8 | > 200 | –
Cc1ccc(N2C(=O)C(CC(=O)Nc3ccccc3)N(Cc3cccnc3)C2=O)cc1 (centres undefined) | 191 | – | > 1 | > 200 | –
COc1ccc(C2CC(=O)C3=C(C2)NC(C)=C(C(=O)OCCc2ccccc2)C3c2ccncc2)cc1 (centres undefined) | 0.4 | 0.417 | 46.5 | 19.3 | –
CC(C)COc1ccc(CN(Cc2ccncc2)S(=O)(=O)c2ccc(F)cc2F)cc1 | 0.7 | 0.724 | > 274 | > 200 | 200
CC1Cc2ccccc2N1C(=O)CSc1nnnn1-c1ccccc1 (centres undefined) | 109 | 110 | > 1.8 | > 200 | –
COc1ccc(S(=O)(=O)N(Cc2ccncc2)Cc2ccc(OCC(C)C)cc2)cc1OC | 0.5 | 0.479 | 45.7 | 21.7 | 21.9
CC(Oc1ccc(-c2ccccc2)cc1)C(=O)Nc1ccc(S(=O)(=O)Nc2nccs2)cc1 (centres undefined) | > 200 | – | – | > 200 | –

Source: ChEMBL document CHEMBL4411286, “Discovery of new potent hits against intracellular Trypanosoma cruzi by QSAR-based virtual screening” (Eur J Med Chem, 2019)
